For 30 compounds, IC50 results are on record in patent US10544143B2, “4-azaindole compounds” (BRISTOL-MYERS SQUIBB COMPANY, priority 2017, dated 2020).

SMILES strings stand for the structures. Like-named read-outs stand apart in the source and are kept apart here.

One test deals with human TLR7 (Homo sapiens (Human), UniProt Q9NYK1). The test can be described thus: TLR7 inhibition reporter assay (HEK-Blue SEAP). The format is cell-based.
Another test has as its target human TLR8 (Homo sapiens (Human), UniProt Q9NR97). The test can be described thus: TLR8 inhibition reporter assay (HEK-Blue SEAP).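 Also: SEAP driven by IFN-β minimal promoter carrying NF-κB and AP-1 sites, compounds dosed 0.05 nM to 50 µM for 22 h, inhibition scaled between agonist-plus-DMSO and reference-inhibitor wells.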 As to conditions: read-out: TLR8 IC50. On the technique in general: A reporter such as luciferase makes a cellular process visible.
A further test addresses human TLR9 (Homo sapiens (Human), UniProt Q9NR96). The test can be described thus: TLR9 inhibition reporter assay (HEK-Blue SEAP).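 Also: SEAP driven by an IFN-β minimal promoter with NF-κB and AP-1 sites, read after 22 h, compounds dosed 0.05 nM–50 µM, inhibition scaled between agonist plus DMSO and reference-inhibitor wells.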 As to conditions: read-out: TLR9 IC50.
Setting [1] is: HEK-Blue cells overexpressing human TLR7, SEAP reporter, gardiquimod 7.5 μM.
The mark [2] stands for this setting: HEK-Blue cells overexpressing human TLR8, SEAP reporter, R848 15.9 μM.
The mark [3] stands for this setting: HEK-Blue cells overexpressing human TLR9, SEAP reporter, ODN2006 5 nM.
Where [4] appears, read: HEK-Blue cells overexpressing human TLR7, gardiquimod 7.5 μM stimulation, SEAP reporter.
Setting [5] is: HEK-Blue cells overexpressing human TLR8, R848 15.9 μM stimulation, SEAP reporter.
Setting [6] is: HEK-Blue cells overexpressing human TLR9, ODN2006 5 nM stimulation, SEAP reporter.
The mark [7] stands for this setting: HEK-Blue human TLR7 cells, gardiquimod 7.5 μM.
The mark [8] stands for this setting: HEK-Blue human TLR8 cells, R848 15.9 μM.
Setting [9] is: HEK-Blue human TLR9 cells, ODN2006 5 nM.

Chain of human TLR8 (Q9NR97 27-1041): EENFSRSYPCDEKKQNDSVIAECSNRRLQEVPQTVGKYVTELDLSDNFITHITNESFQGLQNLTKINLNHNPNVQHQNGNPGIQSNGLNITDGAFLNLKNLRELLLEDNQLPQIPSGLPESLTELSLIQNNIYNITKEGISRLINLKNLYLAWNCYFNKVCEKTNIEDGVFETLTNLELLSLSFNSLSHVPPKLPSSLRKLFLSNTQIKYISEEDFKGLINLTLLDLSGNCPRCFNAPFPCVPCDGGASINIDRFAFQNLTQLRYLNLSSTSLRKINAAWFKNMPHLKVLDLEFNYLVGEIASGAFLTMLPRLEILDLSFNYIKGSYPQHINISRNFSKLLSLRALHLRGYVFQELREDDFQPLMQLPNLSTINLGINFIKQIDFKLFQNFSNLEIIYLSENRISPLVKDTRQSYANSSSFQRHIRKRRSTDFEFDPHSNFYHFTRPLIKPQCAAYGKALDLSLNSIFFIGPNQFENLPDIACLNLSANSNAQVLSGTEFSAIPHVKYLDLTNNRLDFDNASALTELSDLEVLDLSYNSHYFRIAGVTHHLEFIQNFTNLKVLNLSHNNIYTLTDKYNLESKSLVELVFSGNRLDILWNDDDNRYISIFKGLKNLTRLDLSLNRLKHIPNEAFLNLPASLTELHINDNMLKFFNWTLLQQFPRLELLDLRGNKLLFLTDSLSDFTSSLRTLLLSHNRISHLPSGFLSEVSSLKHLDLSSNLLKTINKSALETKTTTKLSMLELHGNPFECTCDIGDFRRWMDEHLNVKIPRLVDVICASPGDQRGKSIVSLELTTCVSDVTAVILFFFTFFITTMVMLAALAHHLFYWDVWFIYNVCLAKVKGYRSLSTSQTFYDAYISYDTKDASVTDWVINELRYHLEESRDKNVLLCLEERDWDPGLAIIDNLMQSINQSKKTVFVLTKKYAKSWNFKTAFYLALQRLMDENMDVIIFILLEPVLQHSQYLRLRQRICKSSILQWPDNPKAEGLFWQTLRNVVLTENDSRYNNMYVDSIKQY
Chain of human TLR9 (Q9NR96 26-1032): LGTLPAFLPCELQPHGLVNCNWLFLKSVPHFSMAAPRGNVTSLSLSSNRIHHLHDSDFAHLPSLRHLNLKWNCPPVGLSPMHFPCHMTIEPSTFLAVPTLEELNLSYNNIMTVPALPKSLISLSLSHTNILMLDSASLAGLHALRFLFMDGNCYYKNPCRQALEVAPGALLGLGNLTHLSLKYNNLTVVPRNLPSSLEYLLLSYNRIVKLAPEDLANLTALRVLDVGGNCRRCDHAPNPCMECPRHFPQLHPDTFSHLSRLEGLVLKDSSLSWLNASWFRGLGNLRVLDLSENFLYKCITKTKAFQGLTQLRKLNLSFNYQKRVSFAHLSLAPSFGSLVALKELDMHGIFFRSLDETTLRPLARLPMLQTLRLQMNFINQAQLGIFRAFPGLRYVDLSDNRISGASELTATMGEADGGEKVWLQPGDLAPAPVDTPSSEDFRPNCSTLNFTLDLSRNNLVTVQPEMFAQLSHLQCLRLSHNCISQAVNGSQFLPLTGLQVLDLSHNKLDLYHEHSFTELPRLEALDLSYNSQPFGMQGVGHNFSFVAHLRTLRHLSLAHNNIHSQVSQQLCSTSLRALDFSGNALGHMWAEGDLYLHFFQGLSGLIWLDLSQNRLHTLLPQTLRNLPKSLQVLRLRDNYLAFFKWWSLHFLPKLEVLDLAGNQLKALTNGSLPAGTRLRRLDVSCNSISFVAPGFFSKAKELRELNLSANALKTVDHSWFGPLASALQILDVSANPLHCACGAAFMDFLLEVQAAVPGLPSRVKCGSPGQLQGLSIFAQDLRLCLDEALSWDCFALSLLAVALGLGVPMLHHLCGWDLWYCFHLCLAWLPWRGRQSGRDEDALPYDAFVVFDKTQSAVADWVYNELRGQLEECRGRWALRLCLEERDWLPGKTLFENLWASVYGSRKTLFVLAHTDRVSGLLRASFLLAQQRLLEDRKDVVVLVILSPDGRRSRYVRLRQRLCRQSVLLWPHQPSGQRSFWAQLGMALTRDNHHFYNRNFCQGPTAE
Chain of human TLR7 (Q9NYK1 27-1049): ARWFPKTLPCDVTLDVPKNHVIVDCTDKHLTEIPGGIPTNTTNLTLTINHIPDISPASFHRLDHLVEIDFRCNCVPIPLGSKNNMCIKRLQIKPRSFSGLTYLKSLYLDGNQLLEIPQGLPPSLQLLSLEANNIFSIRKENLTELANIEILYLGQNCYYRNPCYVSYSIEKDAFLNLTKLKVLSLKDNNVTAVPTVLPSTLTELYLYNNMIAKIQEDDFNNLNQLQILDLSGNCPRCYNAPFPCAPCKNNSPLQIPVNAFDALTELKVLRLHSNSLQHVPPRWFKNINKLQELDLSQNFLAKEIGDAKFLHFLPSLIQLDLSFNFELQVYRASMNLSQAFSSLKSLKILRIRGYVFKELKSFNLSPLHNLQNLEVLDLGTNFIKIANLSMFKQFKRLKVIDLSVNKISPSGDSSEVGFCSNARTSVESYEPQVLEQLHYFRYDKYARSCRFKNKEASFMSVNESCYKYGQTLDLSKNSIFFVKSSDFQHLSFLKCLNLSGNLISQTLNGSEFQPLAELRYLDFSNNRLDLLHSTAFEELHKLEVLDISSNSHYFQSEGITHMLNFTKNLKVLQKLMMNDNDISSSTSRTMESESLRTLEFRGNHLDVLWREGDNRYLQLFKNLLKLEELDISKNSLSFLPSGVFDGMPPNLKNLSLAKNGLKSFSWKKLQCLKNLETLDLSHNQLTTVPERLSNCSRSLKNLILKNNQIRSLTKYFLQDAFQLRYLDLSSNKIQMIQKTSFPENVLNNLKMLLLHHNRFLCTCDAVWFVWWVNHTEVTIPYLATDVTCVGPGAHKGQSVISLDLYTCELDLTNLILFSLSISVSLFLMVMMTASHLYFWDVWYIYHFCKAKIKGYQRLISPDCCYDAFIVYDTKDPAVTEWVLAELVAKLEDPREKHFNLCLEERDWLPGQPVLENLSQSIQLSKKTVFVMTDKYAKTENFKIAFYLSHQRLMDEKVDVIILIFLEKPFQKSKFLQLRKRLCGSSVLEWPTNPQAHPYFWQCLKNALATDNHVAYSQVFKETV

In general, IC50 refers to the concentration at which inhibition is half-maximal. For the compound `Cc1cc2[nH]c(-c3cc(C)c4ncnn4c3)c(C(C)C)c2nc1C1CCN(CC(C)(C)O)CC1` [Example 572], the IC50 on human TLR7 (setting [1]) was 4.6 nM; at human TLR8 (setting [2]), 25 nM; at human TLR9 (setting [3]), 1200 nM.
For `Cc1c(-c2[nH]c3ccc(C4CCNCC4)nc3c2C(C)C)cn(C)c(=O)c1C` [Example 519], in that order: 8.3 nM, 12 nM and 362 nM.
In the case of `CC(C)c1c(-c2cn(C)c3ncccc23)[nH]c2ccc(N3CCC(N(CC#N)CC#N)CC3)nc12` [Example 51], the IC50 turned out to be 5.1 nM against human TLR7 (setting [4]), 7 nM on human TLR8 (setting [5]) and 16300 nM at human TLR9 (setting [6]).
For `COc1cc(-c2[nH]c3ccc(C4CCC(NC(C)C)CC4)nc3c2C(C)C)cn2ncnc12` (stereo not drawn) [Example 193], in that order: 1.5 nM, 6 nM and 648 nM.
`Cc1c(-c2[nH]c3ccc(C4CCC(NC5(CO)COC5)CC4)nc3c2C(C)C)cn2ncnc2c1C` (stereo not drawn) [Example 483]: the 50% inhibitory concentration (IC50) at human TLR7 (setting [1]) was determined as 0.94 nM; at human TLR8 (setting [2]) it was 1.2 nM; on human TLR9 (setting [3]), 5130 nM.
For the compound `CCNCC(=O)N1CCN(c2ccc3[nH]c(-c4cn5ncnc5c(C)c4C)c(C(C)C)c3n2)CC1` [Example 970], the values for the IC50 on human TLR7 (setting [7]), at human TLR8 (setting [8]) and on human TLR9 (setting [9]) were 3.1 nM, 0.92 nM and 10700 nM, respectively.
As for `CC(C)c1c(-c2cc(CO)c3ncnn3c2)[nH]c2ccc(N3CCC(NCC(=O)N(C)C)CC3)nc12` [Example 85], the IC50 stood at 1.8 nM on human TLR7 (setting [4]), 5.8 nM at human TLR8 (setting [5]) and 5180 nM on human TLR9 (setting [6]).
On to `CNC(=O)CNC1CC(c2ccc3[nH]c(-c4cn5ncnc5c(C)c4C)c(C(C)C)c3n2)C1` (stereo not drawn) [Example 631], for which the IC50 worked out at 4 nM at human TLR7 (setting [1]), 1.9 nM on human TLR8 (setting [2]) and 3070 nM on human TLR9 (setting [3]).
Consider `COc1cc(-c2[nH]c3ccc(C4CC(N(C)C(=O)CN(C)C)C4)nc3c2C(C)C)cn2ncnc12` (stereo not drawn) [Example 625], for which the IC50 at human TLR7 (setting [1]) was determined as 0.72 nM; on human TLR8 (setting [2]), 10 nM; on human TLR9 (setting [3]) it was 978 nM.
Taken in the same sequence, the figures for `Cc1c(-c2[nH]c3ccc(C4CN(C(=O)CN(C)C)C4)nc3c2C(C)C)cn2ncnc2c1C` [Example 650] were 6.7 nM, 18 nM and 3120 nM.
Regarding `CCN(CCN(C)C)C(=O)c1nc2c(C(C)C)c(-c3cc(OC)c4ncnn4c3)[nH]c2cc1C` [Example 6, N-(2-(dimethylamino)ethyl)-N-ethyl-3-isopropyl-2-(8-methoxy-[1,2,4]triazolo[1,5-a]pyridin-6-yl)-6-methyl-1H-pyrrolo[3,2-b]pyridine-5-carboxamide], the results for the IC50 on human TLR7 (setting [4]), at human TLR8 (setting [5]) and at human TLR9 (setting [6]) were 0.3 nM, 3.2 nM and 625 nM, respectively.
Consider `COc1cc(-c2[nH]c3ccc(C4CCC(N(C)CC(N)=O)CC4)nc3c2C(C)C)cn2ncnc12` (stereo not drawn) [Example 225], for which the IC50 worked out at 4 nM on human TLR7 (setting [4]), 35 nM on human TLR8 (setting [5]) and 3360 nM at human TLR9 (setting [6]).
For the compound `Cc1cc(-c2[nH]c3ccc(C4CCN(C(=O)CN(C)C)CC4)nc3c2C(C)C)cn2ncnc12` [Example 550], the values for the IC50 on human TLR7 (setting [1]), on human TLR8 (setting [2]) and on human TLR9 (setting [3]) were 0.87 nM, 15 nM and 796 nM, respectively.
As for `COc1cc(-c2[nH]c3ccc(C4CCC(NCC5(C)COC5)C4)nc3c2C(C)C)cn2ncnc12` (stereo not drawn) [Example 718], the results for the IC50 on human TLR7 (setting [1]), on human TLR8 (setting [2]) and at human TLR9 (setting [3]) were 9.6 nM, 3.6 nM and 6210 nM, respectively.
On to `Cc1c(-c2[nH]c3ccc(N4CCN(C(=O)CN5CCC(CO)CC5)CC4)nc3c2C(C)C)cn2ncnc2c1C` [Example 971], for which the 50% inhibitory concentration (IC50) on human TLR7 (setting [7]) was 3 nM; at human TLR8 (setting [8]), 0.85 nM; on human TLR9 (setting [9]), 9250 nM.
Consider `CNC(=O)CN(C)C1CCC(c2ccc3[nH]c(-c4cc(OC)c5ncnn5c4)c(C(C)C)c3n2)CC1` (stereo not drawn) [Example 227], for which the IC50 against human TLR7 (setting [4]) was found to be 2 nM; at human TLR8 (setting [5]), 7.7 nM; on human TLR9 (setting [6]) it was 926 nM.
For `CNC1CCC(c2nc3c(C(C)C)c(-c4cc(OC)c5ncnn5c4)[nH]c3cc2F)CC1` (stereo not drawn) [Example 347], in that order: 0.27 nM, 1 nM and 2470 nM.
In the case of `Cc1c(-c2[nH]c3ccc(NCCN)nc3c2C(C)C)cn2ncnc2c1C` [Example 1001], the IC50 against human TLR7 (setting [7]) was 70 nM; on human TLR8 (setting [8]) it was 40 nM; on human TLR9 (setting [9]) it was 11700 nM.
For the compound `CC(C)c1c(-c2cc(CO)c3ncnn3c2)[nH]c2ccc(C3CCC(NC4COC4)CC3)nc12` (stereo not drawn) [Example 235], the IC50 against human TLR7 (setting [4]) was determined as 1 nM; on human TLR8 (setting [5]), 2 nM; at human TLR9 (setting [6]), 929 nM.
Taken in the same sequence, the figures for `Cc1c(-c2[nH]c3ccc(N4CC5(CCN(C(C)C)CC5)C4)nc3c2C(C)C)cn2ncnc2c1C` [Example 46] were 4.3 nM, 4.9 nM and 1680 nM.
Consider `COc1cc(-c2[nH]c3ccc(C4CNC4)nc3c2C(C)C)cn2ncnc12` [Example 648], for which the figures for the IC50 at human TLR7 (setting [1]), on human TLR8 (setting [2]) and on human TLR9 (setting [3]) were 2.1 nM, 40 nM and 2070 nM, respectively.
As to `Cc1c(-c2[nH]c3ccc(N4CCN[C@H](CO)C4)nc3c2C(C)C)cn2ncnc2c1C` [Example 987], the IC50 came out at 2.9 nM at human TLR7 (setting [7]), 0.5 nM on human TLR8 (setting [8]) and 11300 nM on human TLR9 (setting [9]).
Consider `CC(C)c1c(-c2cn(C)c3ncccc23)[nH]c2ccc(C3CCC(N4CC5(C4)CS(=O)(=O)C5)CC3)nc12` (stereo not drawn) [Example 255], for which the IC50 at human TLR7 (setting [4]) was determined as 0.6 nM; at human TLR8 (setting [5]) it was 0.25 nM; at human TLR9 (setting [6]), 218 nM.
With `COc1cc(-c2[nH]c3ccc(C4CCC(N(CC#N)CC#N)C4)nc3c2C(C)C)cn2ncnc12` (stereo not drawn) [Example 713], the IC50 is 6.2 nM against human TLR7 (setting [1]), 28 nM on human TLR8 (setting [2]) and 4880 nM on human TLR9 (setting [3]).
In the case of `Cc1c(-c2[nH]c3ccc(N4CCN(C(=O)CN5CCCC5)C[C@H]4C)nc3c2C(C)C)cn2ncnc2c1C` [Example 835], the IC50 at human TLR7 (setting [7]) came out at 0.7 nM; on human TLR8 (setting [8]), 4.1 nM; at human TLR9 (setting [9]), 5560 nM.
Consider `COc1cc(-c2[nH]c3ccc(C4CCC(N(C)CCC#N)CC4)nc3c2C(C)C)cn2ncnc12` (stereo not drawn) [Example 175], for which the figures for the IC50 on human TLR7 (setting [4]), at human TLR8 (setting [5]) and at human TLR9 (setting [6]) were 0.35 nM, 2 nM and 926 nM, respectively.
With `Cc1c(-c2[nH]c3ccc(C4CCC(N(C)CCS(C)(=O)=O)CC4)nc3c2C(C)C)cn2ncnc2c1C` (stereo not drawn) [Example 425], the IC50 turned out to be 0.87 nM at human TLR7 (setting [1]), 0.5 nM at human TLR8 (setting [2]) and 2920 nM on human TLR9 (setting [3]).
Regarding `COc1cc(-c2[nH]c3ccc(C4CCC(N5CC6(C5)CS(=O)(=O)C6)CC4)nc3c2C(C)C)cn2ncnc12` (stereo not drawn) [Example 253], the IC50 is 0.65 nM at human TLR7 (setting [4]), 0.72 nM on human TLR8 (setting [5]) and 1150 nM on human TLR9 (setting [6]).
Take `COc1cc(-c2[nH]c3ccc(OCC4CCN(C(C)C)CC4)nc3c2C(C)C)cn2ncnc12` [Example 598, 6-(3-isopropyl-5-((1-isopropylpiperidin-4-yl)methoxy)-1H-pyrrolo[3,2-b]pyridin-2-yl)-8-methoxy-[1,2,4]triazolo[1,5-a]pyridine]: the IC50 was 0.81 nM on human TLR7 (setting [1]), 3.1 nM on human TLR8 (setting [2]) and 949 nM at human TLR9 (setting [3]).
Turning to `Cc1c(-c2[nH]c3ccc(N4[C@H](C)CN(C(=O)CCN(C)C)C[C@H]4C)nc3c2C(C)C)cn2ncnc2c1C` [Example 864], the IC50 on human TLR7 (setting [7]) came to 1.5 nM; on human TLR8 (setting [8]), 12 nM; at human TLR9 (setting [9]), 5690 nM.
